The source of these data is patent publication US8282688B2, “Laccase mediators and methods of use” (Danisco US Inc., priority 2006, dated 2012).

The subject of one data set is C. unicolor laccase. In words: Stability of mediators in the presence of C. unicolor laccase, LC/MS of supernatant (Example 6). Type of data set: physicochemical. As to conditions: for Initial Peak Area / Final Peak Area: LC/MS; for Initial Peak Area: 1 mM standard solution of mediator; for Final Peak Area: supernatant after denim disk bleaching; for Final Peak Area / % Remaining: 2 hours at 50° C.; for % Remaining: supernatant after contact with laccase and denim. The procedure: Aliquots of supernatant were analyzed by LC/MS following the denim disk bleaching protocol described in Example 5 in order to determine the final mediator concentrations in the supernatant following the 2 hour incubation period.
Standard solutions of the mediators were prepared by dilution of the methanolic stock solutions (20 mM) into deionized water, such that the final concentrations were 1 mM respectively for each of the three mediators methyl syringate (MS), 4-cyano-2,6-dimethoxyphenol (SN) and, 4-carboxamido-2,6-dimethoxyphenol (SA). Samples were analyzed using a Thermo Finnegan Quantum TSQ LC/MS system (Thermo Finnegan, San Jose, Calif.) operating in positive electrospray ionization mode. The liquid chromatography conditions were as follows: • Column; Agilent Zorbax SB-Aq, 2.1 mm×100 mm, […] silica • Solvent A; 20 mM Ammonium formate, pH 5.0 • Solvent B; 90% Methanol+10% solvent A • Flow rate; 250 uL/min • Injection volume; 5 uL • Elution program; 70% solvent A from 0 to 1 minute, to 30% A from 3 to 4 minutes, back to 70% A at 4.5 minutes, held at 70% A until 8 minutes overall.
The Mass spectrometry conditions were as follows: • Positive mode electrospray ionization (+ve ESI) in full scan mode, scanning from 175 to 240 Da in 0.5 seconds. • Spray voltage was 4200V, sheath gas flow rate 41 mL/min, aux gas flow rate at 15 mL/min. Tube lens voltage was 109V and capillary temperature was 270° C.

In the next data set the test system is recombinant laccase D. In words: Denim swatch bleaching, laccase and mediator concentration, Launder-O-meter (Example 10). Type of data set: biochemical, Cerrena unicolor. The arrangement: key: TCD = √(ΔL²+Δa²+Δb²) in CIE Lab, before vs after treatment. As to conditions: 60° C., pH 6. On the procedure:
Laccase enzyme, derived from Cerrena unicolor (Example 7, 8570 U/ml, 4 mg protein/ml) was used in the experiments.
The enzyme incubations were done in an ATLAS LP 2 Launder-O-meter at different conditions in relation to pH, temperature, enzyme concentration and mediator concentration.
Reactions were carried out in 500 ml stainless steel reaction vessels containing 100 ml of liquid. To each vessel five (7×7 cm) stonewashed denim swatches (ACG denim style 80270) and 6 steel balls of 6 mm diameter were added. The reactions vessels were closed and entered into the launder-O-meter that was pre-heated to the desired temperature. The incubation was carried out for 30 minutes after which the swatches were washed with ‘running’ tap water, spin dried in an AEG IPX4 centrifuge and dried with an Elna Press Electronic iron at program cotton and evaluated.
The color of the five denim swatches is measured with a Minolta Chromameter CR 310 in the CIE Lab color space with a D 65 light source. Measurements were done before and after laccase treatment and the results of the five swatches were averaged. The total color difference (TCD) is calculated. The total color difference can be calculated with the formula: TCD=√(ΔL)^2+(Δa)^2+(Δb)^2.
The effect of laccase and mediator concentration was evaluated running the experiments in the tables below at pH 6 (50 mM monosodium phosphate buffer pH adjusted with sodium hydroxide 4N solution) and a temperature of 60° C.
The experiments were done with syringamide (SA)- and syringonitrile (SN) mediator.
100 ml buffer was added to a beaker with five swatches, 7×7 cm. The total weight 12 g, (denim:liquor ratio=1:8).
The amounts of syringamide or syringonitrile mediator as indicated in the tables below were added to each beaker as a dilution of a 275 mM SA—or—SN stock solution in 98% methanol. The laccase was added to each beaker as indicated in the tables below, as dilution of a 400 units/ml laccase stock solution. The beakers were closed and processed at 60° C. as described in the example 8. The swatches were evaluated as described in example 8.

For data set [1], the system named is Cerrena unicolor Laccase (recombinant laccase D). The data set is described as follows: Laccase bleaching of stonewashed denim legs, effect of temperature, Unimac, recombinant laccase D (Example 9). In kind it is biochemical. As to conditions: laccase 0.05 g/l/0.4 U/ml, pH 6, 30 minutes. The procedure:
Denim, 12 legs weighing approximately 3 kg, was desized in a Unimac UF 50 washing machine under the following conditions: • Desizing for 15 minutes at 10:1 liquor ratio 50° C. with 0.5 g/l (15 g) of Optisize 160 amylase (Genencor) and 0.5 g/l (15 g) of a non-ionic surfactant (e.g. Rucogen BFA, (Rudolf Chemie) or Ultravon GPN, (Huntsman)) • 2 cold rinses for 5 minutes at 30:1 liquor ratio.
Following desizing the denim was stonewashed in a Unimac UF 50 washing machine under the following conditions: • Cold rinse for 5 minutes at 10:1 liquor ratio • Stonewashing for 60 minutes at 10:1 liquor ratio 55° C. with 1 kg of pumice stone, citrate buffer (30 g tri-sodium citrate dihydrate and 30 g citric acid monohydrate) and 35 g IndiAge 2XL cellulase (Genencor). • 2 cold rinses for 5 minutes at 30:1 liquor ratio.
Denim legs were evaluated with a Minolta Chromameter CR 310 in the CIE Lab color space with a D 65 light source. Measurements were done only after laccase treatment. For each denim leg 8 measurements are taken and the result of the 12 legs (96 measurements) was averaged.
Laccase bleaching of stonewashed denim: Denim, 12 legs approximately 3 kg, was desized and stonewashed as described in example 8. After stonewashing a laccase treatment was done in a Unimac UF 50 washing machine according to the following process: • 30 minutes at 10:1 liquor ratio, • pH 6 (21 g monosodium phosphate and 5 g adipic acid, recombinant laccase D) or pH 4.8 (8.6 g monosodium phosphate and 16.8 g of adipic acid, Novoprime Base 268 laccase) • laccase (recombinant laccase D or Novoprime Base 268) • mediator (syringamide (SA) and syringonitrile (SN)) • After laccase treatment the denim use rinsed twice in cold water for 5 minutes at 30:1 liquor ratio.

[2] abbreviates: laccase 10 μl/l, mediator 0.10 mM.
Setting [3] is: laccase 10 μl/l, mediator 0.55 mM.
Where [4] appears, read: laccase 10 μl/l, mediator 1.00 mM.
Where [5] appears, read: laccase 33 μl/l, mediator 0.33 mM.
[6] abbreviates: laccase 33 μl/l, mediator 0.78 mM.
The mark [7] stands for this setting: laccase 55 μl/l, mediator 0.10 mM.
[8] abbreviates: laccase 55 μl/l, mediator 0.55 mM.
The mark [9] stands for this setting: laccase 55 μl/l, mediator 1.00 mM.
[10] abbreviates: laccase 78 μl/l, mediator 0.33 mM.
Where [11] appears, read: laccase 78 μl/l, mediator 0.78 mM.
The mark [12] stands for this setting: laccase 100 μl/l, mediator 0.10 mM.
Where [13] appears, read: laccase 100 μl/l, mediator 0.55 mM.
The mark [14] stands for this setting: laccase 100 μl/l, mediator 1.00 mM.

Where “and” joins values, the source holds several entries; their conditions need not be identical. Equal entries are not always repeated.

Take `COc1cc(C(N)=O)cc(OC)c1O` [SA, 4-carboxamido-2,6-dimethoxyphenol]: the “Initial Peak Area” value in the data set with C. unicolor laccase was 122 × 10^7. Further, the “Final Peak Area” value in the data set on C. unicolor laccase is on record as 0.94 × 10^7. Further, in the data set on C. unicolor laccase, the “% Remaining” value amounted to 7.8%. Further, the “TCD (total color difference)” value with recombinant laccase D (setting [2]) was found to be 2.5; in the data set with recombinant laccase D (setting [3]), 3.6; with recombinant laccase D (setting [4]), 3.2; in the data set with recombinant laccase D (setting [5]), 4.6; in the data set on recombinant laccase D (setting [6]) it was 5.5; with recombinant laccase D (setting [7]) it was 3.1. The “TCD (total color difference)” value in the data set on recombinant laccase D (setting [8]) was 5.3 and 5.8; with recombinant laccase D (setting [9]), 6.2; in the data set on recombinant laccase D (setting [10]), 4.4; with recombinant laccase D (setting [11]), 5.9; in the data set on recombinant laccase D (setting [12]), 3.2 and 2.9; with recombinant laccase D (setting [13]) it was 5.3. Besides, the “TCD (total color difference)” value in the data set on recombinant laccase D (setting [14]) is 5.6 and 6.0. Moreover, the “Bleaching level (CIE L)” value is reported as 35.6 in data set [1] (mediator 0.33 mM, 40 ° C.) and 35.6 in data set [1] (mediator 0.33 mM, 60 ° C.).
Consider `COc1cc(C#N)cc(OC)c1O` [SN, 4-cyano-2,6-dimethoxyphenol], for which the “Initial Peak Area” value with C. unicolor laccase is reported as 35.6 × 10^7. Also, the “Final Peak Area” value in the data set with C. unicolor laccase is 35.2 × 10^7. Besides, the “% Remaining” value in the data set with C. unicolor laccase worked out at 98.9%. In addition, the “TCD (total color difference)” value in the data set with recombinant laccase D (setting [2]) was 2.7; in the data set with recombinant laccase D (setting [3]) it was 3.4; with recombinant laccase D (setting [4]), 3.8; in the data set on recombinant laccase D (setting [5]) it was 4.4; with recombinant laccase D (setting [6]), 5.5; with recombinant laccase D (setting [7]), 3.5. Moreover, the “TCD (total color difference)” value is 6.0 and 6.3 in the data set on recombinant laccase D (setting [8]); 7.0 in the data set with recombinant laccase D (setting [9]); 5.6 in the data set with recombinant laccase D (setting [10]); 7.1 in the data set on recombinant laccase D (setting [11]); 4.0 and 4.1 in the data set with recombinant laccase D (setting [12]); 7.1 in the data set on recombinant laccase D (setting [13]). For the same compound, in the data set with recombinant laccase D (setting [14]), the “TCD (total color difference)” value is 7.6 and 8.1. Also, the “Bleaching level (CIE L)” value in data set [1] (mediator 0.47 mM, 40 ° C.) came to 35.7; in data set [1] (mediator 0.47 mM, 60 ° C.), 35.9.
